# Values of other authors as cited in patent US6548469B2, “Cleaning compositions” (Merck Patent GmbH, priority 1996, dated 2003).
# Details: use in cosmetics formulations on humans
structure (smiles),measurement,value
CCCCN(CCC(=O)OCC)C(C)=O [ethyl 3-(N-butylacetamino)propionate],skin and mucosa tolerance,outstanding
same,"toxic, allergizing or sensitizing properties","without toxic, allergizing or sensitizing properties"
